Where “and” joins values, the source holds several entries; their conditions need not be identical. Equal values may be shown once.
Experiments:
Assay type in all cases: functional, Homo sapiens
Parameters in all cases: dose or concentration left out as unconfirmed
[1] = test system: Colon cancer organoid; experiment: Image-based profiling of donated chemical probes and chemogenomic kinase set in O06 CRC organoid. Image analysis is performed on the sum area metric, and the data were normalized to the DMSO control. After imaging the organoid viability is measured using the OneGloEX Luciferase Assay System. The normalized viability data and sum area are reported.
[2] = test system: Colon cancer organoid; experiment: Image-based profiling of donated chemical probes and chemogenomic kinase set in O09 CRC organoid. Image analysis is performed on the sum area metric, and the data were normalized to the DMSO control. After imaging the organoid viability is measured using the OneGloEX Luciferase Assay System. The normalized viability data and sum area are reported.
[3] = test system: Colon cancer organoid; experiment: Image-based profiling of donated chemical probes and chemogenomic kinase set in O21 CRC organoid. Image analysis is performed on the sum area metric, and the data were normalized to the DMSO control. After imaging the organoid viability is measured using the OneGloEX Luciferase Assay System. The normalized viability data and sum area are reported.

Row | Compound | Cell Viability ([1]; Replication number 1) | Cell Viability ([1]; Replication number 2) | Cell Viability ([2]; Replication number 1) | Cell Viability ([2]; Replication number 2) | Cell Viability ([3]; Replication number 1) | Cell Viability ([3]; Replication number 2)
1 | O=C(NNS(=O)(=O)c1ccccc1F)c1cc(F)cc(-c2ccccn2)c1 [WM-1119] | 59.5797% and 94.7368% | 61.7919% and 84.5747% | 133.421% and 96.9739% | 39.4001% and 91.3957% | 82.8466% and 99.3088% | 81.4128% and 90.2447%
2 | Nc1nc(NCc2ccccc2)nc(-c2ccccc2CO)n1 [Ogerin] | 105.073% and 119.514% | 91.1794% and 124.7% | 84.1314% and 95.0982% | 82.0321% and 100.912% | 116.019% and 92.2153% | 95.1453% and 93.8137%
3 | CN1CCN(Cc2cc(NC(=O)c3ccc4c(c3)CN(c3ccccc3)CC4)cc(C(F)(F)F)c2)CC1 | 104.972% and 109.917% | 87.5694% and 92.1973% | 73.1959% and 82.4072% | 164.971% and 111.856% | 111.963% and 96.9088% | 113.098% and 109.943%
4 | Cc1ccc(C(=O)Nc2cccc(C(F)(F)F)c2)cc1Nc1nc(-c2cccnc2)nc2c1cnn2C | 111.788% and 111.949% | 93.5249% and 94.6015% | 119.681% and 88.2655% | 229.025% and 116.079% | 58.179% and 60.2091% | 55.1529% and 56.0201%
5 | CC(C)Oc1ccc(-c2c[nH]cc2CN(C)CCO)cc1 | 142.087% and 115.973% | 131.014% and 107.302% | 133.832% and 103.4% | 212.72% and 118.594% | 96.8467% and 122.861% | 101.748% and 92.8998%
6 | Cc1cc(NC(=O)c2cccc(S(F)(F)(F)(F)F)c2)cc(-n2ccn3nc(-c4cccnc4)cc23)c1 [BAY-309] | 100.937% and 113.583% | 92.9473% and 106.13% | 161.366% and 84.5766% | 126.224% and 101.643% | 93.9876% and 96.6365% | 97.5385% and 109.184%
7 | C[C@H](c1ccc(F)cc1)N(Cc1cccc(C(=O)O)c1)C(=O)c1cnc2ccccc2c1 [PF-05105679] | 106.225% and 110.304% | 129.169% and 147.587% | 96.3652% and 120.892% | 63.8781% and 75.356% | 102.98% and 107.115% | 83.9126% and 93.8775%
8 | COc1cc(-c2cn([C@H]3CCc4ccccc4N(CC(F)(F)F)C3=O)nn2)ccc1-n1ccc(C)n1 | 93.8708% and 97.1897% | 92.3722% and 127.214% | 31.4153% and 64.0297% | 67.1931% and 101.059% | 95.5395% and 92.5614% | 105.607% and 89.2857%
9 | COCCN1CCC(c2cc(CN(C)C(=O)c3cccc(Oc4ccccc4)c3)ccn2)CC1 | 195.683% and 128.295% | 160.805% and 131.439% | 147.027% and 86.0124% | 179.06% and 107.19% | 116.465% and 111.692% | 91.1118% and 90.2148%
10 | CN(C)CCOc1ccc(-c2nc(-c3ccncc3)c(-c3ccc4c(c3)CC/C4=N\O)[nH]2)cc1 [SB590885] | 179.76% and 135.095% | 115.548% and 114.756% | 91.6254% and 70.3132% | 62.6087% and 63.1686% | 87.754% and 100.348% | 97.8507% and 97.8769%
11 | Nc1ncnc2c1ccn2[C@@H]1O[C@H]([C@H](O)c2ccccc2)[C@@H](O)[C@H]1O | 27.0632% and 78.2819% |  | 67.0274% and 58.6553% | 77.7398% and 60.4371% | 74.1764% and 78.772% | 70.798% and 78.401%
12 | COc1ccccc1-c1cc(N2CCN(C(=O)OC(C)(C)C)CC2)c(N)nn1 | 179.264% and 129.02% | 154.723% and 113.755% | 86.2709% and 84.3895% | 173.59% and 117.453% | 94.3574% and 85.8263% | 106.056% and 125.119%
13 | CC(=O)c1c(NS(C)(=O)=O)c2cc(-c3ccc(Cl)cc3)c(-c3ccc(Cl)cc3Cl)nc2n(C)c1=O [MRL-CB1-NC] | 116.774% and 92.5059% | 73.5946% and 87.6518% | 160.352% and 102.495% | 132.682% and 100.183% | 126.549% and 100.129% | 108.062% and 94.898%
14 | Cc1cc(=O)n(C)c2cc(N3C(=O)CC[C@H](NS(=O)(=O)CC(C)C)[C@H]3c3ccc(Cl)cc3)ccc12 | 144.152% and 97.8523% | 176.827% and 107.063% | 117.261% and 101.082% | 140.716% and 110.041% | 117.189% and 110.516% | 129.923% and 112.232%
15 | C=CC(=O)Nc1cccc(C(=O)Nc2ccc(Nc3cc(-c4[nH]c(SC)nc4C)ccn3)cc2)c1 | 120.545% and 116.4% | 120.557% and 114.139% | 195.827% and 119.682% | 254.944% and 117.159% | 87.1744% and 91.9861% | 133.203% and 116.877%
16 | O=C1c2ccc(Nc3ccc(F)cc3F)cc2CCc2ccc(OC[C@H](O)CO)cc21 [Skepinone-L] | 90.1352% and 107.854% | 111.788% and 116.531% | 97.726% and 98.0993% | 77.28% and 97.9381% | 124.274% and 139.142% | 112.785% and 100.442%
17 | O=C(NC[C@@H]1[C@H]2CN(C(=O)OCc3cc(C(F)(F)F)cc(C(F)(F)F)c3)C[C@@H]12)c1ccc2[nH]nnc2c1 [BI 2545] | 131.534% and 122.248% | 107.128% and 130.293% | 189.417% and 138.094% | 118.998% and 92.5885% | 93.6308% and 96.6365% | 84.4904% and 89.2857%
18 | CC(=O)Nc1c(C(C)=O)c(=O)n(C)c2nc(-c3ccc(Cl)cc3Cl)c(-c3ccc(Cl)cc3)cc12 [NAPHTHYRIDINONE] | 123.545% and 117.564% | 103.77% and 94.7587% | 117.091% and 130.21% | 64.3844% and 79.7371% | 94.8536% and 101.294% | 91.9114% and 85.7143%
19 | O=C(N1CCS(=O)(=O)CC1)N1C[C@H](c2ccc(OC(F)(F)F)cc2)C[C@H](c2nc(C3CC3)no2)C1 [BAY-386] | 89.0523% and 95.7845% | 109.266% and 112.289% | 89.9865% and 101.779% | 61.3549% and 77.1084% | 113.622% and 103.04% | 77.465% and 87.7551%
20 | CNC(=O)c1cc(C(=O)N[C@H]2[C@@H]3COC[C@@H]32)cc2c1O[C@@H](CF)[C@@H]2c1ccccc1 [GSK943] | 114.013% and 124.372% | 80.0063% and 92.9841% | 64.3424% and 103.726% | 87.7458% and 93.3783% | 93.124% and 115.133% | 103.782% and 108.09%
21 | Cn1c(-c2csc(C3CCN(CC4=NC5N=CC=CC5N4)CC3)n2)nc2ccccc21 (stereo not given) [BAY-070] | 51.6449% and 96.9231% | 54.618% and 76.4056% | 60.3085% and 58.8971% | 70.2327% and 76.9231% | 109.219% and 99.8545% | 106.656% and 102.481%

Reference: ChEMBL document CHEMBL5724558, “Image-based profiling of drug vulnerabilities in CRC organoids” (2024)
